{"source": "paper PMC8237303", "about": "(Heliyon, 2021)", "key": {"[1]": {"tested_on": "Glutamate receptor (AMPA)", "experiment": "D,L-alpha-[3H]-Amino-3-Hydroxy-Methylisoxazole-4-Propionic Acid", "assay_type": "binding", "conditions": "0.1 mM l-menthol; Rat cerebral cortex"}, "[2]": {"target": "Adenosine A1 receptor (Human) (Homo sapiens, UniProt P30542)", "experiment": "[3H]8-Cyclopentyl-1,3-dipropylxanthine", "assay_type": "binding", "conditions": "0.1 mM l-menthol; Human recombinant"}, "[3]": {"target": "Angiotensin AT2 receptor (Human) (Homo sapiens, UniProt P50052)", "experiment": "[125I]-CGP-42112A binding assay", "conditions": "0.1 mM l-menthol; Human recombinant"}, "[4]": {"tested_on": "Glutamate receptor (NMDA phencycidine site)", "experiment": "[3H]-", "assay_type": "binding", "conditions": "0.1 mM l-menthol; Rat cerebral cortex"}, "[5]": {"target": "Histamine H2 receptor (Human) (Homo sapiens, UniProt P25021)", "experiment": "[3H]-Tiotidine binding assay", "conditions": "0.1 mM l-menthol; Human recombinant"}, "α1A-Adrenergic receptor": {"target": "α1A-Adrenergic receptor (Rattus norvegicus, UniProt P43140)", "sequence (P43140 whole entry)": "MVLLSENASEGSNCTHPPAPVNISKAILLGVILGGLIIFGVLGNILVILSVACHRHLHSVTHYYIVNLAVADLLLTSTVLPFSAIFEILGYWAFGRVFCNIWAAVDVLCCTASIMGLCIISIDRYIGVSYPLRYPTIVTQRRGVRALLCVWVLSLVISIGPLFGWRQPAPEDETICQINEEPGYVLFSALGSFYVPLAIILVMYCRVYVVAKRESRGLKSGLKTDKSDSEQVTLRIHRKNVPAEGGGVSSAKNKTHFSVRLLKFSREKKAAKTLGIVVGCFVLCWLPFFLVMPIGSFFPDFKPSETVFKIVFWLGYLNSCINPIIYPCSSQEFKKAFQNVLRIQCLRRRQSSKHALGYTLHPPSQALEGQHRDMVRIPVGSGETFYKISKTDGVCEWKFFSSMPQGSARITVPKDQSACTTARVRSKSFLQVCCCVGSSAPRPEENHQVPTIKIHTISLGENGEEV", "experiment": "[3H]-Prazosin binding assay", "conditions": "0.1 mM l-menthol; Rat submandibular gland"}, "Monoamine transporter": {"tested_on": "Monoamine transporter", "experiment": "[3H]-α-Dihydrotetrabenazine binding assay", "conditions": "0.1 mM l-menthol; Rabbit platelet"}, "[6]": {"target": "Angiotensin AT1 receptor (Human) (Homo sapiens, UniProt P30556)", "sequence (P30556 whole entry)": "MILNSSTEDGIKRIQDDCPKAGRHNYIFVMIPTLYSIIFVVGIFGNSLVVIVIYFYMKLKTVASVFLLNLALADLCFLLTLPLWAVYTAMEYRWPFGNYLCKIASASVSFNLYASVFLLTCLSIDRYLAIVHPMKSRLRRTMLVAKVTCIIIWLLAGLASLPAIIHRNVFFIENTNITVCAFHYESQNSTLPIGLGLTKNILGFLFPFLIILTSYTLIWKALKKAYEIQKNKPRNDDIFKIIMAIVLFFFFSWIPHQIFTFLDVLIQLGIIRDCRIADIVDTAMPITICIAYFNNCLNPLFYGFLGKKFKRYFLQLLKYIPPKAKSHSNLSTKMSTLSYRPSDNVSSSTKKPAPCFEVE", "experiment": "[125I]-Angiotensin II", "assay_type": "binding", "conditions": "0.1 mM l-menthol; Human recombinant"}, "[7]": {"tested_on": "Glutamate receptor (NMDA agonist site)", "experiment": "[3H]-CGP-39653 binding assay", "conditions": "0.1 mM l-menthol; Rat cerebral cortex"}, "[8]": {"target": "Neurokinin NK2 receptor (Human) (Homo sapiens, UniProt P21452)", "experiment": "[3H]-SR 48968 binding assay", "conditions": "0.1 mM l-menthol; Human recombinant"}, "[9]": {"target": "α2A-Adrenergic receptor (Human) (Homo sapiens, UniProt P08913)", "sequence (P08913 whole entry)": "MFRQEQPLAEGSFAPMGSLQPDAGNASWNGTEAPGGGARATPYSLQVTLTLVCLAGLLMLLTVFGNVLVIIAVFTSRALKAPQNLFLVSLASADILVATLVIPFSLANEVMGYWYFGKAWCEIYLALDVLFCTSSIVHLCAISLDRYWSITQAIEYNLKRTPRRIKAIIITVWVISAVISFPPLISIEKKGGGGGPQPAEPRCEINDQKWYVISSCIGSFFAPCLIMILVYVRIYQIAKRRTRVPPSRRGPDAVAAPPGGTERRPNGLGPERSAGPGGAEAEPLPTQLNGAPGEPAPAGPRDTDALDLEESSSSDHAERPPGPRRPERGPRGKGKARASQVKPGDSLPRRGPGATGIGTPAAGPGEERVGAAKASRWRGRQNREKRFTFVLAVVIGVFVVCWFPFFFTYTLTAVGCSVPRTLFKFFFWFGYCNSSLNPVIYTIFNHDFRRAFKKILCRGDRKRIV", "experiment": "[3H]-Rauwolscine hydrochloride binding assay", "conditions": "0.1 mM l-menthol; Human recombinant"}, "[10]": {"target": "β2-Adrenergic receptor (Human) (Homo sapiens, UniProt P07550)", "experiment": "[3H]-", "assay_type": "binding", "conditions": "0.1 mM l-menthol; Human recombinant"}, "[11]": {"target": "Vasopressin V2 receptor (Human) (Homo sapiens, UniProt P30518)", "experiment": "[3H]-Vasopressin, 8-L-Arginine binding assay", "conditions": "0.1 mM l-menthol; Human recombinant"}, "[12]": {"target": "Histamine H3 receptor (Human) (Homo sapiens, UniProt Q9Y5N1)", "experiment": "N-alpha-[3H]-Methylhistamine, Dihydrochloride binding assay", "conditions": "0.1 mM l-menthol; Human recombinant"}, "GABA B receptor": {"target": "GABA B receptor (Rattus norvegicus, UniProt Q9Z0U4)", "experiment": "gamma-[3H]-Aminobutyric Acid", "assay_type": "binding", "conditions": "0.1 mM l-menthol; Rat cerebellum"}, "[13]": {"tested_on": "Ca channel (Type L, Phenylalkylamine)", "experiment": "[3H]-", "assay_type": "binding", "conditions": "0.1 mM l-menthol; Rat cerebral cortex"}, "[14]": {"target": "Neurotensin NT1 receptor (Human) (Homo sapiens, UniProt P30989)", "experiment": "[125I]-Neurotensin binding assay", "conditions": "0.1 mM l-menthol; Human recombinant"}, "Leukotriene D4 receptor": {"target": "Leukotriene D4 receptor (Cavia porcellus, UniProt Q2NNR5)", "experiment": "[3H]-Leukotriene D4 binding assay", "conditions": "0.1 mM l-menthol; Guinea pig lung"}, "[15]": {"target": "Cannabinoid CB2 receptor (Human) (Homo sapiens, UniProt P34972)", "experiment": "[3H]-CP-55,940 binding assay", "conditions": "0.1 mM l-menthol; Human recombinant"}, "[16]": {"tested_on": "88 different ligands for specific biomolecules", "experiment": "Binding assay, 88 different ligands", "conditions": "0.1 mM l-menthol"}, "[17]": {"target": "α2C-Adrenergic receptor (Human) (Homo sapiens, UniProt P18825)", "experiment": "[3H]-Rauwolscine hydrochloride binding assay", "conditions": "0.1 mM l-menthol; Human recombinant"}, "[18]": {"target": "Adenosine A3 receptor (Human) (Homo sapiens, UniProt P0DMS8)", "sequence (P0DMS8 whole entry)": "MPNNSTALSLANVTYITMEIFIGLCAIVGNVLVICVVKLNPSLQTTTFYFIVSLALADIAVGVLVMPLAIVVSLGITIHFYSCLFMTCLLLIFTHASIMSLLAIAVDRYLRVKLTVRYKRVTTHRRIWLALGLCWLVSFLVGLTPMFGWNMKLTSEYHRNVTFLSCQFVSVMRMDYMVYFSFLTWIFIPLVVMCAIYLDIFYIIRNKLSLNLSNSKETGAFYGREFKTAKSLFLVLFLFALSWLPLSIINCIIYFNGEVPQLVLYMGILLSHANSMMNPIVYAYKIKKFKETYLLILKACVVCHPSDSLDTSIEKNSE", "experiment": "[125I]-AB-MECA binding assay", "conditions": "0.1 mM l-menthol; Human recombinant"}, "GABA transporter": {"tested_on": "GABA transporter", "experiment": "gamma-[3H]-Aminobutyric Acid", "assay_type": "binding", "conditions": "0.1 mM l-menthol; Rat cerebral cortex; in the presence of isoguvacine hydrochloride and S (−)-baclofen hydrochloride"}, "IP3 receptor": {"tested_on": "IP3 receptor", "experiment": "D-[3H]-Inositol-1,4,5-Triphosphate binding assay", "conditions": "0.1 mM l-menthol; Rat cerebellum"}, "[19]": {"target": "Serotonin 5HT3 receptor (Human) (Homo sapiens, UniProt P46098)", "experiment": "[3H]-GR65630 binding assay", "conditions": "0.1 mM l-menthol; Human recombinant"}, "CCK A receptor (Human)": {"target": "CCK A receptor (Human) (Homo sapiens, UniProt P32238)", "experiment": "[125I]-Cholecystokinin Octapeptide binding assay", "conditions": "0.1 mM l-menthol; Human recombinant"}, "[20]": {"target": "Opiate ORL1 receptor (Human) (Homo sapiens, UniProt P41146)", "sequence (P41146 whole entry)": "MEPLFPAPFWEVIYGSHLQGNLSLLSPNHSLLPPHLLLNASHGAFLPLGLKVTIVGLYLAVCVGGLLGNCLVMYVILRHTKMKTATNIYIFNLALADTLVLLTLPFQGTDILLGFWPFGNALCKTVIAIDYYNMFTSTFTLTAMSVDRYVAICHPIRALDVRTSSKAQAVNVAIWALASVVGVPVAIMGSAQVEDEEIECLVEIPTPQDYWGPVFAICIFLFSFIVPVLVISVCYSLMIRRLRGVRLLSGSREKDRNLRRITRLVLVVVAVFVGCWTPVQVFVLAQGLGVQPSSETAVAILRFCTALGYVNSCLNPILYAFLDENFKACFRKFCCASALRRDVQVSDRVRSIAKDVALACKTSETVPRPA", "experiment": "[3H]-Nociceptin binding assay", "conditions": "0.1 mM l-menthol; Human recombinant"}, "[21]": {"target": "Testosterone receptor (Human) (Homo sapiens, UniProt P10275)", "sequence (P10275 whole entry)": "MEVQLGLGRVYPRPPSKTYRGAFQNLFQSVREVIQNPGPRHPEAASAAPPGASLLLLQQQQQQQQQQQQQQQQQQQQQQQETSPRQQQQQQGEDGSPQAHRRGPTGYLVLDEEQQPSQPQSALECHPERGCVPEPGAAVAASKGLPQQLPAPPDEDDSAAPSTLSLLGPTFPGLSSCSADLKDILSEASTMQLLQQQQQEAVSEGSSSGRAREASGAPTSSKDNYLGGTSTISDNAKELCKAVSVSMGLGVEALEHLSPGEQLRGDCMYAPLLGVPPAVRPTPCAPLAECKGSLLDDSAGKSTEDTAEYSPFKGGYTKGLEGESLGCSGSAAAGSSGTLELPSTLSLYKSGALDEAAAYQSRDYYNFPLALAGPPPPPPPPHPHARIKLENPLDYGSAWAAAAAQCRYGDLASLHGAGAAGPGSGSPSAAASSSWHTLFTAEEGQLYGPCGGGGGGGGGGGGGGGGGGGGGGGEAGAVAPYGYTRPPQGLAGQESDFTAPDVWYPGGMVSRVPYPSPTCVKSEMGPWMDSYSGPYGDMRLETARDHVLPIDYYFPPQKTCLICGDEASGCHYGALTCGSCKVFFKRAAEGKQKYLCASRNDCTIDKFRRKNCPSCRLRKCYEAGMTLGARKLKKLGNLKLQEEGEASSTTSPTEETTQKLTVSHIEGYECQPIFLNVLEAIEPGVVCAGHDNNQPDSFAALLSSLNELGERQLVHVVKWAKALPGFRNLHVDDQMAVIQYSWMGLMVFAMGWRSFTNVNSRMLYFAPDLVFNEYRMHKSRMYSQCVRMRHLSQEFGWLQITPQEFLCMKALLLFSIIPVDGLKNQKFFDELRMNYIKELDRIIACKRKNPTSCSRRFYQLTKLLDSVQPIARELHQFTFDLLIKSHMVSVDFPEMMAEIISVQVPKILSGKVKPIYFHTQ", "experiment": "[3H]-Methyltrienolone", "assay_type": "binding", "conditions": "0.1 mM l-menthol"}, "[22]": {"target": "Opiate κ receptor (Human) (Homo sapiens, UniProt P41145)", "sequence (P41145 whole entry)": "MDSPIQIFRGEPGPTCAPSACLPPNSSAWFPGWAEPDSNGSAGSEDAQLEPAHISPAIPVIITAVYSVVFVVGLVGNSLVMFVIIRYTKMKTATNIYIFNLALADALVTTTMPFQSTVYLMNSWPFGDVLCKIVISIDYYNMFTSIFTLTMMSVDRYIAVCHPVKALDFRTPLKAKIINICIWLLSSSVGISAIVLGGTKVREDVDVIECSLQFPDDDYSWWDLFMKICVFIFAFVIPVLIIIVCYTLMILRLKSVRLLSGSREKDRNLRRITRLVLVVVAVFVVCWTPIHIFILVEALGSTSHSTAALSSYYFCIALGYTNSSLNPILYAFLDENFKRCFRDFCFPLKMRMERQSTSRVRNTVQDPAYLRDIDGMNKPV", "assay_type": "binding", "conditions": "0.1 mM l-menthol"}, "[23]": {"target": "Prostanoid EP2 receptor (Human) (Homo sapiens, UniProt P43116)", "experiment": "[3H]-Prostaglandin E2 binding assay", "conditions": "0.1 mM l-menthol; Human recombinant"}, "[24]": {"tested_on": "Bombesin receptor (Non-selective)", "experiment": "[125I]-Bombesin binding assay", "conditions": "0.1 mM l-menthol; Rat whole brain"}, "[25]": {"target": "Dopamine D5 receptor (Human) (Homo sapiens, UniProt P21918)", "sequence (P21918 whole entry)": "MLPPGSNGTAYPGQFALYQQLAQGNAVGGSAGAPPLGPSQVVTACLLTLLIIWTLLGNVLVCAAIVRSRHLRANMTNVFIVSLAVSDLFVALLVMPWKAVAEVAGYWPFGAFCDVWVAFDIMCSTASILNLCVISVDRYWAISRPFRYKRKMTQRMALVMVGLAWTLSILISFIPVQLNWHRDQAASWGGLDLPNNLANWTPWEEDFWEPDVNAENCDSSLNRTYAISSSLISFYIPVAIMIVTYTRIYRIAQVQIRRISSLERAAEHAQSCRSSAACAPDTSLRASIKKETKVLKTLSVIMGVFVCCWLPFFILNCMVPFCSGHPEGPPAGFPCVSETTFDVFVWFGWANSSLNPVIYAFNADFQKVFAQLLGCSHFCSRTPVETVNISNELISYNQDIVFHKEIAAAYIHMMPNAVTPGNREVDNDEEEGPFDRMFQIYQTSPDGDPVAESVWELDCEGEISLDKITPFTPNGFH", "experiment": "[3H]SCH 23390 binding assay", "conditions": "0.1 mM l-menthol; Human recombinant"}, "[26]": {"tested_on": "Glycine receptor (Strychnine sensitive)", "assay_type": "binding", "conditions": "0.1 mM l-menthol; Rat spinal cord"}, "[27]": {"target": "Melatonin MT1 receptor (Human) (Homo sapiens, UniProt P48039)", "experiment": "[125I]-Melatonin binding assay", "conditions": "0.1 mM l-menthol; Human recombinant"}, "[28]": {"tested_on": "Nicotinic receptor (Human)", "experiment": "[3H]-", "assay_type": "binding", "conditions": "0.1 mM l-menthol; Human receptor (Non-recombinant)"}, "[29]": {"target": "Adenosine A2a receptor (Human) (Homo sapiens, UniProt P29274)", "experiment": "[3H]-CGS21680 binding assay", "conditions": "0.1 mM l-menthol; Human recombinant"}, "[30]": {"target": "Muscarinic M5 receptor (Human) (Homo sapiens, UniProt P08912)", "sequence (P08912 whole entry)": "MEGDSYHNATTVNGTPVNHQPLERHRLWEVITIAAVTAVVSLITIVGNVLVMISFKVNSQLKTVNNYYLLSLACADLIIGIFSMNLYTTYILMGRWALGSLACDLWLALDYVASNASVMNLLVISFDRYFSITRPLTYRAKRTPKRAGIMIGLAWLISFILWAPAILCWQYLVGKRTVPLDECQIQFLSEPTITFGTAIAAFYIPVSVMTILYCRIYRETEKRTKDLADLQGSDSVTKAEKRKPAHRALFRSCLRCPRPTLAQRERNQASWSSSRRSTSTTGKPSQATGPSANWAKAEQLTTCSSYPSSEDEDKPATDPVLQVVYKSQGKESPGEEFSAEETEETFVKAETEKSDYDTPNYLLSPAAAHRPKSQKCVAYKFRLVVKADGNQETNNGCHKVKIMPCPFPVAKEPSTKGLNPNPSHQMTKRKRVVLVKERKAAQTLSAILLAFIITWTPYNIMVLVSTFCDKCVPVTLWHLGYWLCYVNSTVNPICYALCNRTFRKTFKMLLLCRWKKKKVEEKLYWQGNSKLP", "experiment": "[3H]-Scopolamine Methyl Chloride binding assay", "conditions": "0.1 mM l-menthol; Human recombinant"}, "[31]": {"target": "Dopamine D4.2 receptor (Human) (Homo sapiens, UniProt P21917, DEL265-296)", "experiment": "[3H]-Spiperone binding assay", "conditions": "0.1 mM l-menthol; Human recombinant"}, "[32]": {"target": "Norepinephrine transporter (Human) (Homo sapiens, UniProt P23975)", "sequence (P23975 whole entry)": "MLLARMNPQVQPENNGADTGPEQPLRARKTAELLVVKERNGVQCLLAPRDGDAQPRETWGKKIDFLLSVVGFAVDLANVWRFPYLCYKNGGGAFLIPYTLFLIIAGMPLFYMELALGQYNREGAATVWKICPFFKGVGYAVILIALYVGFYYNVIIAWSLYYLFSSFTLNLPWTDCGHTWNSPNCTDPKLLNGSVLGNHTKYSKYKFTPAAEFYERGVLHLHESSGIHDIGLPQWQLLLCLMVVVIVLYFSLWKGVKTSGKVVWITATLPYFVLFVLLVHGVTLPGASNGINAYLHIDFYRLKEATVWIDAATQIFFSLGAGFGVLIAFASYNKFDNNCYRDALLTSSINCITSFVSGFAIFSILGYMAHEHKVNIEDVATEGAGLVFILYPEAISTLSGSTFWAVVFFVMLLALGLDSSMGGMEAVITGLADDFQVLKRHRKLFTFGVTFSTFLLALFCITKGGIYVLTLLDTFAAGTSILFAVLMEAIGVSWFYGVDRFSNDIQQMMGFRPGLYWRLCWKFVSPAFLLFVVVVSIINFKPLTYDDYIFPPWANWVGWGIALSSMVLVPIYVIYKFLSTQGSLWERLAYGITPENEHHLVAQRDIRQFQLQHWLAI", "experiment": "[3H]-Nisoxetine hydrochloride binding assay", "conditions": "0.1 mM l-menthol; Human recombinant"}, "[33]": {"target": "Dopamine D2 receptor short isoform (Human) (Homo sapiens, UniProt P14416)", "experiment": "[3H]-Spiperone binding assay", "conditions": "0.1 mM l-menthol; Human recombinant"}, "CCK B receptor (Human)": {"target": "CCK B receptor (Human) (Homo sapiens, UniProt P32239)", "experiment": "[125I]-Cholecystokinin Octapeptide binding assay", "conditions": "0.1 mM l-menthol; Human recombinant"}}, "data": [{"smiles": "CC(C)[C@@H]1CC[C@@H](C)C[C@H]1O", "note": "[l-menthol]", "values": [{"measurement": "Inhibition by l-Menthol (%)", "setting": "[1]", "result": 0, "unit": "%"}, {"measurement": "Inhibition by l-Menthol (%)", "setting": "[2]", "result": 1.83, "unit": "%"}, {"measurement": "Inhibition by l-Menthol (%)", "setting": "[3]", "result": 0, "unit": "%"}, {"measurement": "Inhibition by l-Menthol (%)", "setting": "[4]", "result": 1.27, "unit": "%"}, {"measurement": "Inhibition by l-Menthol (%)", "setting": "[5]", "result": 21.17, "unit": "%"}, {"measurement": "Inhibition by l-Menthol (%)", "setting": "α1A-Adrenergic receptor", "result": 5.13, "unit": "%"}, {"measurement": "Inhibition by l-Menthol (%)", "setting": "Monoamine transporter", "result": 7.73, "unit": "%"}, {"measurement": "Inhibition by l-Menthol (%)", "setting": "[6]", "result": 16.92, "unit": "%"}, {"measurement": "Inhibition by l-Menthol (%)", "setting": "[7]", "result": 0, "unit": "%"}, {"measurement": "Inhibition by l-Menthol (%)", "setting": "[8]", "result": 6.12, "unit": "%"}, {"measurement": "Inhibition by l-Menthol (%)", "setting": "[9]", "result": 11.34, "unit": "%"}, {"measurement": "Inhibition by l-Menthol (%)", "setting": "[10]", "result": 0, "unit": "%"}, {"measurement": "Inhibition by l-Menthol (%)", "setting": "[11]", "result": 13.53, "unit": "%"}, {"measurement": "Inhibition by l-Menthol (%)", "setting": "[12]", "result": 0, "unit": "%"}, {"measurement": "Inhibition by l-Menthol (%)", "setting": "GABA B receptor", "result": 1.1, "unit": "%"}, {"measurement": "Inhibition by l-Menthol (%)", "setting": "[13]", "result": 24.78, "unit": "%"}, {"measurement": "Inhibition by l-Menthol (%)", "setting": "[14]", "result": 0, "unit": "%"}, {"measurement": "Inhibition by l-Menthol (%)", "setting": "Leukotriene D4 receptor", "result": 0, "unit": "%"}, {"measurement": "Inhibition by l-Menthol (%)", "setting": "[15]", "result": 8.57, "unit": "%"}, {"measurement": "Inhibition of the binding of 32 isotope-labeled ligands (Table 3 (b))", "setting": "[16]", "result": "did not measurably inhibit"}, {"measurement": "Inhibition rates, 9 isotope-labeled ligands (Table 3 (a))", "setting": "[16]", "result": "< 1", "unit": "%"}, {"measurement": "Inhibition by l-Menthol (%)", "setting": "[17]", "result": 7.75, "unit": "%"}, {"measurement": "Inhibition by l-Menthol (%)", "setting": "[18]", "result": 8.22, "unit": "%"}, {"measurement": "Inhibition by l-Menthol (%)", "setting": "GABA transporter", "result": 10.09, "unit": "%"}, {"measurement": "Inhibition by l-Menthol (%)", "setting": "IP3 receptor", "result": 0.12, "unit": "%"}, {"measurement": "Inhibition by l-Menthol (%)", "setting": "[19]", "result": 2.21, "unit": "%"}, {"measurement": "Inhibition by l-Menthol (%)", "setting": "CCK A receptor (Human)", "result": 0, "unit": "%"}, {"measurement": "Inhibition by l-Menthol (%)", "setting": "[20]", "result": 5.76, "unit": "%"}, {"measurement": "Inhibition by l-Menthol (%)", "setting": "[21]", "result": 0, "unit": "%"}, {"measurement": "Inhibition by l-Menthol (%)", "setting": "[22]", "result": 4.86, "unit": "%"}, {"measurement": "Inhibition by l-Menthol (%)", "setting": "[23]", "result": 0.66, "unit": "%"}, {"measurement": "Inhibition by l-Menthol (%)", "setting": "[24]", "result": 21.87, "unit": "%"}, {"measurement": "Inhibition by l-Menthol (%)", "setting": "[25]", "result": 0, "unit": "%"}, {"measurement": "Inhibition by l-Menthol (%)", "setting": "[26]", "result": 0, "unit": "%"}, {"measurement": "Inhibition by l-Menthol (%)", "setting": "[27]", "result": 5.74, "unit": "%"}, {"measurement": "Inhibition by l-Menthol (%)", "setting": "[28]", "result": 0, "unit": "%"}, {"measurement": "Inhibition by l-Menthol (%)", "setting": "[29]", "result": 21.62, "unit": "%"}, {"measurement": "Inhibition by l-Menthol (%)", "setting": "[30]", "result": 0, "unit": "%"}, {"measurement": "Inhibition by l-Menthol (%)", "setting": "[31]", "result": 28.19, "unit": "%"}, {"measurement": "Inhibition by l-Menthol (%)", "setting": "[32]", "result": 7.89, "unit": "%"}, {"measurement": "Inhibition by l-Menthol (%)", "setting": "[33]", "result": 0, "unit": "%"}, {"measurement": "Inhibition by l-Menthol (%)", "setting": "CCK B receptor (Human)", "result": 3.31, "unit": "%"}]}]}
